For 4 compounds, IC50 results are on record in patent US8273900B2, “Organic compounds” (Novartis AG, priority 2008, dated 2012).

Molecules are shown by their SMILES.

The assay deals with T1, human recombinant CRF-1 receptor (Homo sapiens, UniProt P34998).
T1 construct: expressed in transfected cells; host or cells: CHO cells (G418-selected)
T1 sequence (P34998 24-415): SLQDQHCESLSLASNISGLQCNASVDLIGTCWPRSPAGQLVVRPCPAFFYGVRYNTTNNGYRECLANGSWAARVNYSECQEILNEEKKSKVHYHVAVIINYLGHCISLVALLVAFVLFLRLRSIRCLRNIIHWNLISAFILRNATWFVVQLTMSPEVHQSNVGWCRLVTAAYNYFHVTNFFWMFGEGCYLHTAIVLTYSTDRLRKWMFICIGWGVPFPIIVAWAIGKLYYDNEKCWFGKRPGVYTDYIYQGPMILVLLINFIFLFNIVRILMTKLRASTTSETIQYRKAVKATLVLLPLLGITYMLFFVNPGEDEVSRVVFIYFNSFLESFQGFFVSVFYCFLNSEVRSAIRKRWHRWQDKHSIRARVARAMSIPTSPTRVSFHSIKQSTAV
The experiment in a line: CRF-1 receptor antagonism, HTRF cAMP assay in CHO cells in the presence of 1 nM CRF. The format is cell-based. The following applies: CHO cells expressing human recombinant CRF-1; inhibition of the effect of 1 nM CRF on cAMP. In general terms: Time-resolved FRET reads energy transfer from a long-lived donor to a nearby acceptor.

`Cc1nn(C[C@H]2CC[C@H](NC(=O)c3cc(C(F)(F)F)ccc3Cl)CC2)c(C)c1Cl` [Example 21.8, 2-Chloro-N-[4-(4-chloro-3,5-dimethyl-pyrazol-1-ylmethyl)-cyclohexyl]-5-trifluoromethyl-benzamide]: the IC50 was 113 nM.
Under `O=C(N[C@H]1CC[C@H](Cn2ccc(-c3ccccc3)n2)CC1)c1cc(C(F)(F)F)ccc1Cl` [Example 22.3, 2-Chloro-N-[4-(3-phenyl-pyrazol-1-ylmethyl)-cyclohexyl]-5-trifluoromethyl-benzamide] stands 234 nM; under `Cc1cc(C)n(C[C@H]2CC[C@H](NC(=O)c3cc(Cl)cnc3C)CC2)n1` [Example 22.4, 5-Chloro-N-[4-(3,5-dimethyl-pyrazol-1-ylmethyl)-cyclohexyl]-2-methyl-nicotinamide], 350 nM; under `Cc1ncc(Cl)cc1C(=O)N[C@H]1CC[C@H](Cn2nc(C(F)(F)F)cc2C)CC1` [Example 22.7, Trans-5-Chloro-2-methyl-N-[4-(5-methyl-3-trifluoromethyl-pyrazol-1-ylmethyl)-cyclohexyl]-nicotinamide], 187 nM.

By IC50 is commonly meant the concentration that inhibits the measured activity by half.
